Starred links: 1 amine or outer side, 2 acyl side, 3 side chain; linkers in the order of their positions; H or OH if unused. Positions of bridges follow the written chain, without caps; N, C: chain ends. Non-standard residues stand in square brackets, D forms with d. Residues, ends and D or L forms follow the SMILES beside them. *: point of attachment. X3 = CCCCCCCCCCC(=O)N[C@H](C(=O)NC[C@@H](CC(=O)[*:1])N[*:2])[C@@H](C)O; X2 = CCCCCCCCNC(=O)[C@H](O)[C@@H](O)C(=O)NC[C@@H](CC(=O)[*:1])N[*:2]; X9 = CCCCCCCCNC(=O)[C@H](O)[C@@H](O)C(=O)*; Undecanoyl = CCCCCCCCCCC(=O)*; Orn = NCCC[C@H](N)C(=O)O
Experiments:
[1] = system: S. cerevisiae (ATCC204504); assay type: cell-based; settings: ATCC204504, 24 h
Protocol: Bacto yeast extract (0.63 g, 70161, Fluka, Barcelona, Spain), peptone (1.00 g, 26421, Mikuni, Japan), and glucose (1.00 g, 16806-25, Nacalai tesque, Japan) were added to H2O (50 mL) at room temperature and the mixture was heated to 60 °C. After 30 min, the mixture was sterilized by heating in an autoclave at 121 °C for 20 min.
DMSO (8 µL, 13406-55, Nacalai tesque, Japan) was added to YPD medium (750 µL). The test fungus culture solution (3 µL) was added to this solution (1.5 mL).
The inhibitor (each 1.0 mg; 3a–h, 4a–b, 5a–b, 6a–b, 7, 8) was dissolved in DMSO (40 µL).
The prepared test bacteria (50 µL) were placed in A1–A12 of a 96-well plate. Bk analogue (50 µL) was added to A1, pipetting was performed, and then 50 µL was extracted from A1 and placed in A2. This operation was repeated until A11, and 50 µL extracted from A11 was discarded. The well plate was closed and incubated at 30 °C. After 24 h, the MIC values were evaluated.

[2] = RP-HPLC retention time as measure of hydrophilicity/hydrophobicity; assay type: physicochemical; settings: chromatographic, Cosmosil 5C18-AR-II 4.6 x 150 mm, linear gradient 30–70% MeCN/H2O (0.1% TFA) for 30 min, 1 mL/min, UV 220 nm
Protocol: […] In all cases, the retention times of the (S)-Dab-containing peptides were shorter than those of the (R)-Dab-containing peptides, which were similar to those bearing L-Orn. The retention times of the cyclic peptides were shorter for Tat > D-Ser > L-Thr > L-Ser, while peptides bearing the undecanoic acid moiety eluted […] than those bearing the decanoic acid by about 2 min.

S. cerevisiae [3] = experiment: Potentiation assay with G418; assay type: cell-based; settings: for potentiation of the effect of G418: S. cerevisiae, peptide dose 100 µg/mL, result in words
Protocol: (§1) Two antibiotics with different mechanisms of action can have a synergistic effect, together exerting an antifungal activity higher than the sum of their individual activities. Accordingly, the potentiation of the antifungal effect of G418 (Geneticin), an aminoglycosyl-type antibiotic that inhibits protein biosynthesis by binding to the ribosome 70S and 80S subunits, and zeocin (phleomucin D1), a glycopeptide antibiotic and DNA intercalator, by cyclic peptides (3a)–(8) was evaluated. Although the relatively high PSA and negative logP values of Bk analogues (3a)–(8) are not conductive to cell penetration, there was the possibility that their fatty side chains have an affinity for cell surfaces. […] The mechanism of action is not clear, but it is possible that the interaction of the cyclic peptides (3a)–(8) with the cell wall increases its susceptibility to penetration by G418.
(§2) The prepared test bacteria (50 µL) were placed in well A1–A12 of a 96-well plate. G418 (200 mg/mL, 108321-42-2, Nacalai tesque, Japan) in H2O, then medium […] was added to A1, pipetting was performed, and 50 µL was extracted from A1 and placed in A2. This operation was repeated until A11, and 50 µL extracted from A11 was discarded. After 30 min, Bk analogue (200 μg/mL) in medium […] was added to each solution (final concentration = 100 μg/mL). The well plate was closed and incubated at 30 °C. After 24 h, the MIC and potentiation values were evaluated.

S. cerevisiae [4] = experiment: Potentiation assay with zeocin; assay type: cell-based; settings: assays attempted three times
Protocol: as §1
as §2, with “After 24 h, the MIC and potentiation values were evaluated.” left out

Candida albicans = settings: cited from earlier work
From the text: The burkholdines (Bks) are a family of 25-membered cyclic lipopeptides composed of eight amino acids arranged in a lactam ring bearing a lipophilic side chain, which were first isolated from the proteobacteria Burkholderia ambifaria 2.2N by Schmidt in 2010 [1, 2, 3, 4]. […] The mechanism of this activity is thought to entail the inhibition of fungal β-glucan synthase, as is the case for the candine anti ...

MIC [1]	tR [2]	Compound	other results
>200 µg/mL	10.7 min	CCCCCCCCCCC(=O)N[C@H](C(=O)NC[C@H]1CC(=O)N[C@H](CO)C(=O)N[C@H](Cc2ccc(O)cc2)C(=O)N[C@H](CC(N)=O)C(=O)NCC(=O)N[C@@H](CC(N)=O)C(=O)N[C@@H](CO)C(=O)N[C@@H](CC(N)=O)C(=O)N1)[C@@H](C)O [Compound 4b, Cyclo-[Undecanoic Acid-Thr-(R)-7-D-Ser-D-Tyr-D-Asn-Gly-Asn-Ser-Asn]] ([dS][dY][dN]GNSN; linker N-C via X3)	potentiation of the effect of G418 (S. cerevisiae [3]): weak potentiating effects
>200 µg/mL	6.4 min	CCCCCCCCNC(=O)[C@H](O)[C@@H](O)C(=O)NC[C@H]1CC(=O)N[C@H](CO)C(=O)N[C@H](Cc2ccc(O)cc2)C(=O)N[C@H](CC(N)=O)C(=O)NCC(=O)N[C@@H](CC(N)=O)C(=O)N[C@@H](CO)C(=O)N[C@@H](CC(N)=O)C(=O)N1 [Compound 5b, Cyclo-[(2R,3R)-2,3-dihydroxy-4-(octylamino)-4-oxobutanoic Acid-(R)-7-D-Ser-D-Tyr-D-Asn-Gly-Asn-Ser-Asn]] ([dS][dY][dN]GNSN; linker N-C via X2)	potentiation of the effect of G418 (S. cerevisiae [3]): weak potentiating effects
>200 µg/mL	10.6 min	CCCCCCCCCCC(=O)N[C@H](C(=O)N[C@H]1CCCNC(=O)[C@H](CC(N)=O)NC(=O)[C@H](CO)NC(=O)[C@H](CC(N)=O)NC(=O)CNC(=O)[C@@H](CC(N)=O)NC(=O)[C@@H](Cc2ccc(O)cc2)NC(=O)[C@@H](CO)NC1=O)[C@@H](C)O [Compound 7, Cyclo-[Undecanoic Acid-Thr-Orn-D-Ser-D-Tyr-D-Asn-Gly-Asn-Ser-Asn]] (Undecanoyl-T[Orn][dS][dY][dN]GNSN; lactam 2-C)	
>200 µg/mL	5.8 min	CCCCCCCCNC(=O)[C@H](O)[C@@H](O)C(=O)N[C@H]1CCCNC(=O)[C@H](CC(N)=O)NC(=O)[C@H](CO)NC(=O)[C@H](CC(N)=O)NC(=O)CNC(=O)[C@@H](CC(N)=O)NC(=O)[C@@H](Cc2ccc(O)cc2)NC(=O)[C@@H](CO)NC1=O [Compound 8, Cyclo-[(2R,3R)-2,3-Dihydroxy-4-(octylamino)-4-oxobutanoic Acid-Orn-D-Ser-D-Tyr-D-Asn-Gly-Asn-Ser-Asn]] (X9-[Orn][dS][dY][dN]GNSN; lactam 1-C)	
		CN[C@@H]1[C@@H](O)[C@@H](O[C@@H]2[C@@H](O)[C@H](O[C@H]3O[C@H]([C@@H](C)O)[C@@H](O)[C@H](O)[C@H]3N)[C@@H](N)C[C@H]2N)OC[C@]1(C)O [Compound G418, G418, reference compound]	MIC (S. cerevisiae [3]; Saccharomyces cerevisiae, 24 h, read-out: MIC of G418 alone): 25 mg/mL
		Cc1c(N)nc([C@H](CC(N)=O)NC[C@H](N)C(N)=O)nc1C(=O)N[C@H](C(=O)N[C@H](C)[C@@H](O)[C@H](C)C(=O)N[C@H](C(=O)NCCC1=N[C@@H](c2nc(C(=O)NCCCCN=C(N)N)cs2)CS1)[C@@H](C)O)[C@@H](O[C@@H]1O[C@@H](CO)[C@@H](O)[C@H](O)[C@@H]1O[C@H]1O[C@H](CO)[C@@H](O)[C@H](OC(N)=O)[C@@H]1O)c1cnc[nH]1 [zeocin]	MIC of zeocin alone (S. cerevisiae [4]): 3.13 mg/mL
		caspofungin	MIC90 (Candida albicans): 0.25 µg/mL
		micafungin	MIC90 (Candida albicans): 0.015 µg/mL

Source: PMC8877233, “The Hydrophobicity and Antifungal Potentiation of Burkholdine Analogues” (Molecules, 2022)
